Test results: patent publication US20220347186A1, “METHODS AND COMPOSITIONS FOR TREATING SICKLE CELL DISEASE AND THALASSEMIA” (THE UNIVERSITY OF CHICAGO, priority 2019, published 2022)
“Also recorded” adds a separate entry of the source.

Experiments:
[1] = tested on: K562 cells; experiment: RT-qPCR quantification of gene expression in K562 cells; format: cell-based, human
Description: (§1) K562, HEL, and HL-60 cells were cultured in RPMI 1640 medium supplemented with 10% FBS. TF-1 cells were cultured in RPMI 1640 medium supplemented with 10% FBS and 4 ng/mL GM-CSF. Before treatment, TF-1 cells were washed 4× with RPMI 1640 without supplements, and cultured in RPMI 1640 medium with 10% FBS but no GM-CSF for 24 hours. 4 ng/mL GM-CSF or 3 units/mL EPO were added at the time of treatment set up. K562, HEL, and HL-60 cells were cultured as normal until treatment set up. JQ1 (Sigma-Aldrich, SML1524), CPI-0610 (Selleck Chemicals, S7853), and PLX51107 (MedChemExpress, HY-111422) were dissolved in DMSO to 10 mM concentration and stored in −80° C. All three inhibitors were applied to cells at 200 nM, with parallel DMSO treatment (0.002%) as control. JQ1 and PLX51107 were added to cell culture at day 0 without additional treatments up to day 5. CPI-0610 was reapplied to the cells on a daily basis.
(§2) cDNA libraries for mRNAs were made from 1 μg input RNA using High-Capacity cDNA Reverse Transcription Kit (ThermoFisher, 4368814). Gene expressions were quantified using Power SYBR Green PCR Master Mix (Thermofisher, 4367659). For microRNAs, cDNA libraries were made with Taqman Advanced miRNA cDNA Synthesis Kit (Thermofisher, A28007). miR-15A and miR-16-1 were quantified using the Taqman Advanced miRNA Assays (ThermoFisher, A25576) specific to hsa-miR-15a-5p (assay ID: 477858_mir) and hsa-miR-16-5p (assay ID: 477860_mir).

[2] = tested on: HEL cells; experiment: RT-qPCR quantification of hemoglobin gene expression in HEL cells; format: cell-based, human; conditions: 200 nM
Description: as §1, §2

[3] = tested on: TF-1 cells; experiment: RT-qPCR quantification of gene expression in TF-1 cells; format: cell-based, human
Description: as §1, §2

[4] = tested on: BET proteins; conditions: BRD2/BRD3/BRD4/BRDT, literature refs 17, 18; cited from earlier work
[5] = tested on: HEL cells; experiment: Sanger sequencing of HBG1/2 cDNA, HBG1 vs HBG2 ratio, HEL cells; format: cell-based, human; conditions: DMSO vs JQ1 treatment, sequencing peak heights
[6] = tested on: K562 cells; experiment: Benzidine-hematoxylin staining for hemoglobin producing cells; format: cell-based; conditions: 200 nM
Description: as §1
K562 cells were counted, and 200,000 cells were collected by spinning at 400 g. […]
At least three randomly selected fields of stained cells were imaged at 40× magnification. […] The numbers of benzidine-positive cells and the intensity of benzidine staining were quantified in the benzidine channel, whereas the total cell number and abnormal nuclear morphology were quantified in the hematoxylin channel. Results of all fields from each slide were summed for the final quantification.

[7] = tested on: K562 cells; experiment: RNA-seq gene expression in K562 cells; format: cell-based, human
Description: as §1
Sample RNA libraries were prepared using the KAPA mRNA HyperPrep Kit (Roche, KK8580) with 1 μg input RNA and submitted for sequencing. Raw reads in fastq format were aligned to the hg19 reference genome using HISAT2(38) with Gencode gene and transcript annotation (GRCh37.p13)(39). Gene expression was quantified and compared by tools in the Cuffliks package (40). GO analysis and term clustering was performed using g:Profiler and Cytoscape following the protocols published by Reimand et al (41).

[8] = tested on: K562 cells; experiment: Sanger sequencing of HBG1/2 cDNA, HBG1 vs HBG2 ratio, K562 cells; format: cell-based, human; conditions: DMSO vs JQ1 treatment, sequencing peak heights
[9] = tested on: β-globin locus in K562 cells; experiment: 3C-qPCR interaction frequency at the β-globin locus in K562 cells; format: cell-based, human
Description: as §1
Methods for chromatin conformation capture (3C) qPCR was adapted from Hagège et al. (42). Briefly, 10 million cells were collected and fixed with 1% formaldehyde for 5 minutes in PBS with 10% FBS for 5 minutes, then quenched by 124 mM glycine on ice. The fixed cells were then lysed and digested by 400 units of EcoRI (NEB, R3101). Small aliquots of the samples were taken before and after the digestion as digestion controls. Following the digestion, the samples were diluted and ligated by T4 DNA ligase (NEB, M0202). The samples were then reverse-crosslinked, and DNA was purified by phenol-chloroform extraction. The digestion efficiency, sample purity, and DNA concentration of each sample were assessed by qPCR to exclude low-quality samples prior to the 3C quantification. Calculated quantity of each primer pairs was normalized as number of templates per million B13 control site template. Additionally, because the Gg primer anneals to both HBG1 and HBG2 fragments, while the Ag primer anneals to only HBG2 fragment, the Gg primer signal was subtracted by Ag primer signal to quantify the HBG1 interaction frequency. […]

[10] = tested on: K562 cells; experiment: Cell growth and viability of K562 cells with BET inhibitor; format: cell-based; conditions: 200 nM vs DMSO control
Description: as §1

[11] = tested on: HEL cells; experiment: Cell growth and viability of HEL cells with BET inhibitor; format: cell-based; conditions: 200 nM vs DMSO control, days 0-3
Description: as §1

[12] = TF-1 cells, both proliferation and erythropoietic conditions

Cc1sc2c(c1C)C(c1ccc(Cl)cc1)=N[C@@H](CC(=O)OC(C)(C)C)c1nnc(C)n1-2 [JQ1]
miR-15A expression [1]: significantly upregulated
miR-16-1 expression [1]: significantly upregulated
HBB expression ([1]; 200 nM, 5-day time course): unaffected
HBE1 expression ([1]; 200 nM, 5-day time course): upregulated
HBG1/2 expression ([1]; 200 nM, 5-day time course): upregulated
MYC expression ([1]; 200 nM, up to 4 days after the initial treatment): consistently suppressed
BGLT3 expression increase ([1]; RT-qPCR): 6 fold
HEMGN expression ([1]; RT-qPCR): significantly suppressed
MYB expression ([1]; RT-qPCR): significantly suppressed
HBB expression [2]: suppressing
HBE1 expression [2]: significantly upregulated
HBG1/2 expression [2]: significantly upregulated
miR-15A expression ([3]; TF-1 cells): significantly upregulated
miR-16-1 expression ([3]; TF-1 cells): significantly upregulated
HBB expression ([3]; TF-1 cells treated with both EPO and JQ1): significantly decreased
HBE1 expression increase ([3]; TF-1 cells treated with both EPO and JQ1, day 5): over 200 fold
HBB expression ([3]; TF-1 cells under proliferative condition, 200 nM): not observed
HBE1 expression ([3]; TF-1 cells, 200 nM, without EPO): only upregulated
BCL11A expression ([3]; TF-1 cells, RT-qPCR): significantly suppressed
MYB expression ([3]; TF-1 cells, RT-qPCR): significantly suppressed
HEMGN expression ([3]; TF-1 cells, RT-qPCR, especially under erythropoietic condition): significantly suppressed
Proportion of HBB transcripts relative to total β-globin transcripts [3, 12]: significantly decreased
Proportion of HBE1 transcripts relative to total β-globin transcripts [3, 12]: increased
Affinity among BET family members [4]: higher affinity for BRD3 and BRD4
Ratio of HBG1 vs. HBG2 [5]: no significant changes
Percentage of hemoglobin producing cells (benzidine-hematoxylin staining) ([6]; day 3): ~6%
Percentage of hemoglobin producing cells (benzidine-hematoxylin staining) ([6]; day 5): over 10%
Expression of heme biosynthesis pathway genes, notably ALAS2 ([7]; RNA-seq): upregulated
Expression of α- and β-globin hemoglobin genes ([7]; RNA-seq): increased the expression of all α- and β-globin hemoglobin genes except HBB and HBD
GATA1 expression ([7]; RNA-seq): did not change
HEMGN expression ([7]; RNA-seq): significantly suppresses
NR2F2 expression ([7]; RNA-seq): did not change
Differentiation (GO analysis of up- and down-regulated genes) ([7]; day 3 and day 5): specifically promotes erythroid, but not myeloid differentiation
Transcriptome (gene expression) change ([7]; day 3 and day 5, JQ1 vs DMSO): substantially changed the transcriptome
Ratio of HBG1 vs. HBG2 [8]: no significant changes
Interaction frequency of 5′BG (5′BGLT3 fragment) with the HBG1/2 region and the LCR [9]: significantly increase
Increase in interaction frequency between the LCR and the HBG promoter region ([9]; 72 hours of JQ1 treatment): over 2 fold
Interaction frequency between the LCR and the rest of the β-globin locus ([9]; 72 hours of JQ1 treatment): slight increases
Cell growth [10]: grow slower; also recorded: not significantly affected; also recorded: slightly suppresses cell growth, but this effect was not statistically significant; also recorded: slightly suppress cell growth, but this effect was not statistically significant
Cell viability [10]: unaffected; also recorded: not significantly affected; also recorded: did not affect cell viability
Cell growth [11]: grow slower; also recorded: significantly suppress cell growth by Day 3
Cell viability [11]: unaffected; also recorded: did not affect cell viability
